Values quoted from earlier work as cited in US20230192701A1, “BICYCLIC KINASE INHIBITORS AND USES THEREOF” (iOmx Therapeutics AG, priority 2020, published 2023).

Experiments:
human skin explants = conditions: topical treatment; Mujahid et al 2017; cited from earlier work
[1] = system: MPAL-associated AML cell lines (including MOLM-13 and MV4-11); conditions: Tarumoto et al 2018; cited from earlier work

## COc1ccc(N(C(=O)Nc2c(C)cccc2C)c2cc(Nc3ccc(N4CCN(C)CC4)cc3)ncn2)c(OC)c1 [HG-9-91-01]
Human skin explants
  eumelanisation in human skin: able to induce eumelanisation
[1]
  viability of MPAL-associated AML cell lines: strongly decreases viability
